The record followed here is patent US10226453B2, “3-(1H-indol-2-yl)-1H-pyrazolo[4,3-B]pyridines and therapeutic uses thereof” (Samumed, LLC, priority 2015, dated 2019).

Assay [1] has as its system primary human fibroblasts derived from IPF patients (LL29 cells) treated with TGF-β1. The experiment in a line: Inhibition of the fibrotic process: αSMA staining in TGF-β1 treated primary human fibroblasts from IPF patients (LL29 cells). The class given is cell-based. As to conditions: Fibroblast, 96 h, TGF-β1 20 ng/mL, 4 days; for EC50: % αSMA positive cells; for inhibition at 10 µM: given where EC50 >10 μM, read-out: percent inhibition at 10 μM. The method in brief:
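Read-out: fraction of αSMA-positive cells by high-content imaging, SYTOX-stained dead cells excluded, normalized to TGF-β1/DMSO wells. Cells got compound (10 μM–[…], 11 points) plus TGF-β1 20 ng/mL for 4 days. EC50 from triplicate curves; above 10 μM, % inhibition at 10 μM given.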

In assay [2] the test system is primary human mesenchymal stem cells (hMSCs). The experiment in a line: Induction of chondrogenesis in primary human mesenchymal stem cells (hMSCs), nodule count. The class given is cell-based. As to conditions: 144 h, 6 days; for EC50: concentration required to induce 50% levels of chondrogenesis of TGF-β3 control, read-out: Conc (nM) of 50% TGF-β3 activity; for Emax: relative to TGF-β3 (10 ng/mL) positive control, read-out: Max. Activity as % TGF-β3 activity. The procedure: Representative compounds were screened using primary human mesenchymal stem cells (hMSCs) to determine their ability to induce chondrogenesis (process by which cartilage is developed).
Primary human mesenchymal stem cells (hMSCs) were purchased from Lonza (Walkersville, Md.) and expanded in Mesenchymal Stem Cell Growth Media (Lonza). Cells between passage 3 and 6 were used for the experiments.
Each compound was dissolved in DMSO as a 10 mM stock and used to prepare compound source plates. Serial dilution (1:3, 6-point dose-response curves from 2700 nM to 10 nM) and compound transfer was performed using the ECHO 550 (Labcyte, Sunnyvale, Calif.) into 96-well clear bottom assay plates (Greiner Bio-One) with appropriate DMSO backfill for a final DMSO concentration of 0.03%. hMSCs were plated at 20,000 cells/well in 250 μL/well Incomplete Chondrogenic Induction Medium (Lonza; DMEM, dexamethasone, ascorbate, insulin-transferrin-selenium [ITS supplement], gentamycin-amphotericin [GA-1000], sodium pyruvate, proline and L-glutamine). TGF-β3 (10 ng/mL) was used as a positive control for differentiation while negative control wells were treated with 75 nL DMSO for normalization and calculating EC50 values. Cells were incubated at 37° C. and 5% CO2 for 6 days. To image chondrogenic nodules, the cells were fixed using 4% formaldehyde (Electron Microscopy Sciences), and stained with 2 μg/mL Rhodamine B (Sigma-Aldrich) and 20 μM Nile Red (Sigma-Aldrich) [Johnson K., et. al, A Stem Cell-Based Approach to Cartilage Repair, Science, (2012). 336(6082), 717-721]. The nodules imaged (4 images per well at 4× magnification) by excitation at 531 nm and emission at 625 nm and quantified using the CellInsight CX5 (Thermo Scientific). Number of nodules in each well was normalized to the average of 3 DMSO treated wells on the same plate using Excel (Microsoft Inc.). The normalized averages (fold change over DMSO) of 3 replicate wells for each compound concentration were calculated. Due to solubility limitations of some of the compounds, curve fitting was incomplete leading to inaccurate EC50 determinations.
Using TGF-β3 as a positive control, the concentration of representative compounds required to induce 50% levels of chondrogenesis is reported. In addition, the maximum activity of each compound and the respective dose that each compound reached maximum chondrogenesis activity is reported.

Where only a bound is given, the exact number is not on record here.

The molecule `CC(C)(C)C(=O)Nc1cncc(-c2ccc3[nH]nc(-c4cc5c(-c6cccc(F)c6)cccc5[nH]4)c3n2)c1` [Compound 8, N-(5-(3-(4-(3-Fluorophenyl)-1H-indol-2-yl)-1H-pyrazolo[4,3-b]pyridin-5-yl)pyridin-3-yl)pivalamide] yielded an EC50 in assay [1] of 3670 nM. In assay [1], `CN(C)Cc1cncc(-c2ccc3[nH]nc(-c4cc5c(-c6ccc(F)cc6)cccc5[nH]4)c3n2)c1` [Compound 41, 1-(5-(3-(4-(4-Fluorophenyl)-1H-indol-2-yl)-1H-pyrazolo[4,3-b]pyridin-5-yl)pyridin-3-yl)-N,N-dimethylmethanamine] came in with an EC50 of 544 nM. For the same molecule, in assay [2], the EC50 was 10 nM and the Emax was 93%. For `Fc1ccc(-c2cccc3[nH]c(-c4n[nH]c5ccc(-c6cncnc6)nc45)cc23)cc1` [Compound 55, 3-(4-(4-Fluorophenyl)-1H-indol-2-yl)-5-(pyrimidin-5-yl)-1H-pyrazolo[4,3-b] pyridine], the EC50 in assay [1] amounted to 890 nM.

With `Fc1ccccc1-c1cccc2[nH]c(-c3n[nH]c4ccc(-c5cncc(CN6CCCCC6)c5)nc34)cc12` [Compound 71, 3-(4-(2-Fluorophenyl)-1H-indol-2-yl)-5-(5-(piperidin-1-ylmethyl)pyridin-3-yl)-1H-pyrazolo[4,3-b]pyridine], the EC50 in assay [1] was found to be 725 nM. In assay [2], the EC50 came to 100 nM and the Emax stood at 96%. For `Fc1ccccc1-c1cccc2[nH]c(-c3n[nH]c4ccc(-c5cncc(CNCc6ccccc6)c5)nc34)cc12` [Compound 80, N-Benzyl-1-(5-(3-(4-(2-fluorophenyl)-1H-indol-2-yl)-1H-pyrazolo[4,3-b]pyridin-5-yl)pyridin-3-yl)methanamine], the EC50 in assay [1] worked out at 2490 nM. The molecule `c1cncc(-c2ccc3[nH]nc(-c4cc5c(-c6cccnc6)cccc5[nH]4)c3n2)c1` [Compound 88, 5-(Pyridin-3-yl)-3-(4-(pyridin-3-yl)-1H-indol-2-yl)-1H-pyrazolo[4,3-b] pyridine] registered an EC50 in assay [1] of 88 nM. Also, in assay [2], the EC50 came to 900 nM and the Emax was determined as 386%.

In assay [1], `CN(C)Cc1cncc(-c2ccc3[nH]nc(-c4cc5c(-c6cccnc6)cccc5[nH]4)c3n2)c1` [Compound 97, N,N-Dimethyl-1-(5-(3-(4-(pyridin-3-yl)-1H-indol-2-yl)-1H-pyrazolo[4,3-b]pyridin-5-yl)pyridin-3-yl)methanamine] yielded an EC50 of 451 nM. Moreover, in assay [2], the Emax came out at 36%.

`Nc1cncc(-c2ccc3[nH]nc(-c4cc5c(-c6ccncc6)cccc5[nH]4)c3n2)c1` [Compound 115, 5-(3-(4-(Pyridin-4-yl)-1H-indol-2-yl)-1H-pyrazolo[4,3-b]pyridin-5-yl) pyridin-3-amine]: the EC50 in assay [1] was determined as 41 nM; in assay [2] it was 900 nM. The Emax in assay [2] is 165%.

With `Cc1ccncc1-c1ccc2[nH]nc(-c3cc4c(-c5ccncc5)cccc4[nH]3)c2n1` [Compound 117, 5-(4-Methylpyridin-3-yl)-3-(4-(pyridin-4-yl)-1H-indol-2-yl)-1H-pyrazolo [4,3-b]pyridine], in assay [1], the EC50 amounted to 197 nM. Besides, in assay [2], the EC50 amounted to 900 nM and the Emax came to 703%. `c1cc(-c2ccncc2)c2cc(-c3n[nH]c4ccc(-c5cncc(CN6CCCCC6)c5)nc34)[nH]c2c1` [Compound 127, 5-(5-(Piperidin-1-ylmethyl)pyridin-3-yl)-3-(4-(pyridin-4-yl)-1H-indol-2-yl)-1H-pyrazolo[4,3-b]pyridine] had an EC50 in assay [1] of 8900 nM. In addition, in assay [2], the EC50 was found to be 2700 nM and the Emax came out at 151%. In assay [1], `c1cc(-c2ccncc2)c2cc(-c3n[nH]c4ccc(-c5cncc(CNCC6CCCC6)c5)nc34)[nH]c2c1` [Compound 137, 1-Cyclopentyl-N-((5-(3-(4-(pyridin-4-yl)-1H-indol-2-yl)-1H-pyrazolo[4,3-b]pyridin-5-yl)pyridin-3-yl)methyl)methanamine] yielded an EC50 of 701 nM.

`c1ccc(-c2ccc3[nH]nc(-c4cc5c(-c6ccncc6)cccc5[nH]4)c3n2)nc1` [Compound 140, 5-(Pyridin-2-yl)-3-(4-(pyridin-4-yl)-1H-indol-2-yl)-1H-pyrazolo[4,3-b] pyridine] returned an EC50 in assay [1] of 520 nM. `FC1(F)CCN(Cc2cncc(-c3ccc4[nH]nc(-c5cc6c(-c7ccccn7)cccc6[nH]5)c4n3)c2)C1` [Compound 166, 5-(5-((3,3-Difluoropyrrolidin-1-yl)methyl)pyridin-3-yl)-3-(4-(pyridin-2-yl)-1H-indol-2-yl)-1H-pyrazolo[4,3-b]pyridine]: in assay [1], the EC50 was 164 nM. For the same molecule, in assay [2], the EC50 stood at 10 nM and the Emax stood at 82%. In assay [1], `c1ccc(-c2cccc3[nH]c(-c4n[nH]c5ccc(-c6cncnc6)nc45)cc23)nc1` [Compound 167, 3-(4-(Pyridin-2-yl)-1H-indol-2-yl)-5-(pyrimidin-5-yl)-1H-pyrazolo[4,3-b] pyridine] showed an EC50 of 201 nM. The Emax in assay [2] was determined as 41%. The inhibition is the relative decrease from the control value, in per cent. Take `c1ccc(-c2ccc3[nH]nc(-c4cc5c(N6CCCCC6)cccc5[nH]4)c3n2)nc1` [Compound 196, 3-(4-(Piperidin-1-yl)-1H-indol-2-yl)-5-(pyridin-2-yl)-1H-pyrazolo[4,3-b] pyridine]: in assay [1], the EC50 is > 10000 nM and the inhibition at 10 µM was found to be 5.2%. The molecule `c1cncc(-c2ccc3[nH]nc(-c4cc5ccccc5[nH]4)c3n2)c1` [Compound 256, 3-(1H-Indol-2-yl)-5-(pyridin-3-yl)-1H-pyrazolo[4,3-b]pyridine] registered an EC50 in assay [1] of 1140 nM. Take `FC1(F)CCN(Cc2cncc(-c3ccc4[nH]nc(-c5cc6c(-c7cccs7)cccc6[nH]5)c4n3)c2)C1` [Compound 362, 5-(5-((3,3-Difluoropyrrolidin-1-yl)methyl)pyridin-3-yl)-3-(4-(thiophen-2-yl)-1H-indol-2-yl)-1H-pyrazolo[4,3-b]pyridine]: in assay [1], the EC50 was found to be 1290 nM.

As to `Nc1cncc(-c2ccc3[nH]nc(-c4cc5ncccc5[nH]4)c3n2)c1` [Compound 507, 5-(3-(1H-Pyrrolo[3,2-b]pyridin-2-yl)-1H-pyrazolo[4,3-b]pyridin-5-yl) pyridin-3-amine], in assay [1], the EC50 was > 10000 nM and the inhibition at 10 µM was 24.5%. The molecule `Fc1cccc(-c2cccc3[nH]c(-c4n[nH]c5ccc(-c6cncc(OCc7ccccc7)c6)nc45)cc23)c1` [Compound 546, 5-(5-(Benzyloxy)pyridin-3-yl)-3-(4-(3-fluorophenyl)-1H-indol-2-yl)-1H-pyrazolo[4,3-b]pyridine] had an EC50 in assay [1] of 1440 nM. Molecule `c1cc(-c2ccoc2)c2cc(-c3n[nH]c4ccc(-c5cn[nH]c5)nc34)[nH]c2c1` [Compound 711, 3-(4-(Furan-3-yl)-1H-indol-2-yl)-5-(1H-pyrazol-4-yl)-1H-pyrazolo[4,3-b] pyridine] displayed an EC50 in assay [1] of 8810 nM. `c1cc(-c2ccoc2)c2cc(-c3n[nH]c4ccc(-c5cncc(OC6CCCCC6)c5)nc34)[nH]c2c1` [Compound 715, 5-(5-(Cyclohexyloxy)pyridin-3-yl)-3-(4-(furan-3-yl)-1H-indol-2-yl)-1H-pyrazolo[4,3-b]pyridine] showed an EC50 in assay [1] of 3940 nM.

On to `Oc1cncc(-c2ccc3[nH]nc(-c4cc5c(-c6cccs6)cccc5[nH]4)c3n2)c1` [Compound 737, 5-(3-(4-(Thiophen-2-yl)-1H-indol-2-yl)-1H-pyrazolo[4,3-b]pyridin-5-yl) pyridin-3-ol], for which the EC50 in assay [1] worked out at 2030 nM. On the same count and under the same terms, for `c1cnc2cc(-c3n[nH]c4ccc(-c5cn[nH]c5)nc34)[nH]c2c1` [Compound 1021, 5-(1H-Pyrazol-4-yl)-3-(1H-pyrrolo[3,2-b]pyridin-2-yl)-1H-pyrazolo[4,3-b] pyridine] the value was 1370 nM. In the case of `Oc1cncc(-c2ccc3[nH]nc(-c4cc5ncccc5[nH]4)c3n2)c1` [Compound 1031, 5-(3-(1H-Pyrrolo[3,2-b]pyridin-2-yl)-1H-pyrazolo[4,3-b]pyridin-5-yl) pyridin-3-ol], in assay [1], the EC50 is > 10000 nM and the inhibition at 10 µM was found to be 18.4%.
